In patent US8415128B2, “Mitigation of photodamage in analytical reactions” (Pacific Biosciences of California, Inc., priority 2005, dated 2013):

Assays:
Type in all cases: biochemical
[1] = tested on: modified φ29 DNA polymerase; experiment: Bulk DNA synthesis under laser illumination, agarose gel image scanning; conditions: dye labeled tetraphosphates (reaction condition 3); 5 minute illumination; 5 mM DTT or 100 mM MEA
Experimental: In a first assay, synthesis reaction mixtures contained a modified φ29 DNA polymerase, 300 nM DNA template, three native nucleoside triphosphates (at 10 μM each) and a fluorescent dye labeled nucleoside polyphosphate (at 10 μM) in synthesis buffer (50 mM Tris-HCl, pH 7.5, 75 mM KCL, 20 mM (NH4)2SO4, 10 mM BME, 0.7 mM MnCl2). Each of the reactions were carried out at room temperature (22° C.) for the desired illumination period, ranging from 1 minute to one hour.
The experiment included two sets each of three different reaction mixtures: (1) a synthesis reaction using only native, e.g., unlabeled nucleoside triphosphates; (2) a synthesis reaction including two native nucleoside triphosphates, an Alexa 488 labeled dCTP analog, and an Alexa 568 labeled dTTP; and (3) a synthesis reaction including two native nucleoside triphosphates, an Alexa 488 labeled dC4P analog (tetraphosphate), and an Alexa 568 labeled dT4P. Each different synthesis reaction conditions included either no illumination or laser illumination during synthesis for five minutes with wavelengths of 488, 568 and 647 nm, followed by 60 minutes of nonilluminated synthesis. […]
The gel was subjected to image scanning (Molecular Dynamics Typhoon 9400, with Typhoon scanner Control Version 2; gel image quantified with Molecular Dynamiics ImageQuant ver. 5.2). […]

[2] = tested on: DNA polymerase immobilized within zero mode waveguides; experiment: DNA synthesis in zero mode waveguide arrays with and without laser illumination; conditions: 160 mM DTT, without MEA; ZMW arrays
Experimental: A similar set of experiments to those described above were performed using DNA polymerase immobilized within zero mode waveguides in an array of waveguides. As above, the first experiment was designed to identify whether laser illumination caused damage to immobilized polymerase enzymes on nanostructured surfaces. The surfaces included ZMW arrays in which the polymerase enzyme was adsorbed to the surface. […] The illumination profile is shown in the first panel (far left), while the image of the stained DNA product in the illuminated synthesis is shown in the adjacent panel (middle left). […] The middle right and far right panels show non-illuminated waveguide arrays, and indicate substantially more DNA is present than in the illuminated sample, again showing photo-induced damage to the polymerase activity in the waveguide arrays. FIG. 4B illustrates a first set of waveguide arrays in which similar synthesis reactions were carried out in the presence of no additional mitigation agents (e.g., only 10 mM βME), or in the presence of 5 mM DTT and 100 mM MEA.

DNA polymerase enzymes = experiment: Chromatide incorporation activity after photodamage step on planar glass substrates; conditions: relative to a non-illuminated control region; Laser Power 2.5 μW/μm^2; baseline 10 mM MEA-Ac, 0.1×GO-Cat, 25 mM Tris-Ascorbate; Trolox at 1 mM, PPD at 100 mM
Experimental: In the experiment, DNA polymerase enzymes were immobilized on planar glass substrates (fused silica microscope slides) and subjected to reaction conditions under which DNA synthesis was taking place. Each reaction mixture also included a baseline level of photodamage mitigating agents (10 mM MEA-Ac, 0.1×GO-Cat, 25 mM Tris-Ascorbate). The reactions were carried out under laser illumination of varying power.
Following the photodamage step, all the solution was washed from the chip and replaced with ordinary buffers and dNTPs. In addition, a base labeled fluorescent nucleotide (chromatide) was added to provide a fluorescent signal of incorporation activity following the photodamage step, above. […] The activity of the enzyme was measured based upon the relative fluorescence of the DNA on the slide.
Table 1, below provides the percent chromatide relative to a non-illuminated control region, for each different additive at the listed laser power.

| Structure (SMILES) | ratio of product when exposed to laser illumination to that in the absence of such illumination [1] | amount of damaged polymerase activity [2] | % Chromatide activity (DNA polymerase enzymes) [%] |
| --- | --- | --- | --- |
| O[C@H](CS)[C@H](O)CS (racemic) [DTT, dithiothreitol] | 0.59 | improvements |  |
| NCCS [MEA, mercaptoethylamine] | 1.04 |  |  |
| Nc1ccc(N)cc1 [PPD, p-phenylenediamene] |  |  | 58 |
| Cc1cc(C(C)(C)C)c(O)c(C(C)(C)C)c1 [BHT, butylated hydroxytoluene] |  |  | 22 |
| C1CN2CCN1CC2 [DABCO, diazobicyclooctane] |  |  | 20 |
| Cc1c(C)c2c(c(C)c1O)CCC(C)(C(=O)O)O2 (stereo not shown) [Trolox] |  |  | 41 |
